Values of other authors as cited in US20150265683A1, “Stable aqueous composition comprising human insulin or an analogue or derivative thereof” (WOCKHARDT LIMITED, priority 2012, published 2015).

Settings: for duration of action: after administration

| Substance | onset of action (starts working) after administration | duration of action | onset of action (begins to work) after administration |
| --- | --- | --- | --- |
| Isophane Insulin: Intermediate-acting insulin | 1 to 3 h | 16 to 24 h | – |
| Asp^B28 human insulin [insulin aspart] | – | 3 to 4 h | 5 to 15 min |
| Lys^B28 Pro^B29 human insulin [insulin lispro] | – | 3 to 4 h | 5 to 15 min |
| Gly(A21)-Arg(B31)-Arg(B32)-human insulin [Insulin glargine] | 1 to 2 h | – | – |
| Insulin detemir | 1 to 2 h | – | – |
| Regular insulin: Short-acting insulin | – | 5 to 8 h | ≤ 30 min |
